Assay results reported in PubChem BioAssay (NCI).
Several values for one entry are separate records, joined by “and”; a condition that tells them apart may be missing. Equal entries are not always repeated.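 In this assay, cells in 96-well plates receive the compound at five concentrations for 48 hours. Endpoints are linearly interpolated between the surrounding concentrations. Here, GI50 denotes the concentration required for 50% inhibition of growth. At the TGI there is no net growth.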

Assays:
Assay in all cases: NCI-60 cell line screen, 48 h
HL-60(TB) leukemia = system: HL-60(TB) leukemia
NCI-H460 lung = system: NCI-H460 lung
MOLT-4 leukemia = system: MOLT-4 leukemia
RXF 393 renal = system: RXF 393 renal
SK-MEL-5 melanoma = system: SK-MEL-5 melanoma
SK-OV-3 ovarian = system: SK-OV-3 ovarian
NCI-H522 lung = system: NCI-H522 lung
UACC-62 melanoma = system: UACC-62 melanoma
NCI-H226 lung = system: NCI-H226 lung
A549 NSCLC = system: A549 NSCLC

Structure (SMILES) | GI50 (HL-60(TB) leukemia) | TGI (HL-60(TB) leukemia) | GI50 (NCI-H460 lung) | TGI (NCI-H460 lung) | GI50 (MOLT-4 leukemia) | TGI (MOLT-4 leukemia) | GI50 (RXF 393 renal) | TGI (RXF 393 renal) | GI50 (SK-MEL-5 melanoma) | TGI (SK-MEL-5 melanoma) | GI50 (SK-OV-3 ovarian) | TGI (SK-OV-3 ovarian) | GI50 (NCI-H522 lung) | TGI (NCI-H522 lung) | GI50 (UACC-62 melanoma) | GI50 (NCI-H226 lung) | TGI (NCI-H226 lung) | GI50 (A549 NSCLC) | TGI (A549 NSCLC) | TGI (UACC-62 melanoma)
COc1ncc(-c2ccc3nccc(C#CCCCCC(=O)NO)c3c2)cc1NS(=O)(=O)c1ccc(F)cc1F | 0.0665 µM | 3.06 µM | 0.109 µM | 11.2 µM | 0.0622 µM | 1.42 µM | 0.0466 µM | 0.75 µM | 0.0801 µM | 1.34 µM | 0.035 µM | 0.18 µM | 0.0929 µM | 2.31 µM | < 0.0195 µM | 1.59 µM | 15.5 µM | 0.104 µM | 3.17 µM | 
O=C(Nc1cccc(-n2cc(-c3ccncc3)c(-c3ccc(Cl)c(O)c3)n2)c1)Nc1ccc(Cl)c(Cl)c1 | 0.515 µM | > 32.5 µM | 0.993 µM | 3.57 µM | 1.38 µM | > 32.5 µM | 1 µM | 6.4 µM | 0.57 µM | 1.16 µM | 1.2 µM | > 32.5 µM | 1.19 µM | 10.6 µM | 1.11 µM | 1.51 µM | > 32.5 µM | 1.01 µM | > 32.5 µM | 5.21 µM
Fc1ccc(N=C2C=CC(=Nc3ccc(F)cc3)c3ccccc32)cc1 |  | > 100 µM |  | > 100 µM |  | > 100 µM |  | > 100 µM |  | > 100 µM |  | > 100 µM |  | > 100 µM |  |  | > 100 µM |  | > 100 µM | > 100 µM
COc1cc(C(=O)NN=C2c3ccccc3-c3ccccc32)cc(OC)c1OC | 2.21 µM | 7.12 µM | 3.17 µM | 26.6 µM | 5.12 µM | > 100 µM | 2.76 µM | 29.3 µM | 2.65 µM | 18 µM | 4.12 µM | > 100 µM | 1.77 µM | 5.8 µM | 3.09 µM | 14.8 µM | 73.9 µM | 3.26 µM | > 100 µM | 24.8 µM
CSC1=Nc2ccccc2N=C(c2ccccc2)C1 |  | 34.9 µM |  | 46.8 µM |  | > 100 µM |  | 71.6 µM |  | > 100 µM |  | > 100 µM |  | > 100 µM |  |  | > 100 µM |  | > 100 µM | > 100 µM
CN1CCN(CCC=C2c3ccccc3Sc3ccc(S(=O)(=O)N(C)C)cc32)CC1 | 2.38 µM and 2.41 µM | 4.65 µM | 3.51 µM and 3.47 µM | 14.8 µM and 14 µM | 2.91 µM and 2.22 µM | 7.95 µM and 7.1 µM | 1.68 µM | 5.52 µM | 1.58 µM | 2.95 µM and 3.02 µM | 9.22 µM and 13.6 µM | 24.7 µM and 30.7 µM | 1.87 µM and 8.15 µM | 3.83 µM and 28.1 µM | 1.66 µM and 1.76 µM | 7.04 µM and 15.9 µM | 26.9 µM and 33.7 µM | 5.69 µM and 9.71 µM | > 100 µM and 31.5 µM | 3.21 µM and 3.48 µM
Cc1cc(Cl)cc2c1NC(=O)C2(O)C(C(=O)c1ccccc1)c1ccccc1 (stereo unspecified) |  | 52.1 µM | > 100 µM and 36.9 µM | > 100 µM |  | 70.9 µM | 38 µM and 16.2 µM | 86.1 µM and 31.7 µM |  | 45.4 µM |  | > 100 µM |  | > 100 µM |  |  | > 100 µM and 58.3 µM | 97.1 µM and 22.6 µM | > 100 µM and 51.5 µM | 33.3 µM
Cc1cnc(-c2ccc(-c3ccc(NC(=O)Nc4c(F)cc(F)cc4F)cc3F)c3c2C(=O)NC3)[nH]1 | 1.1 µM and 0.946 µM | 12.9 µM and 16.9 µM | 0.989 µM | 2.75 µM | 0.0686 µM and 0.212 µM | 13.1 µM and 18.1 µM | 1.15 µM and 1.32 µM | 3.6 µM and 5.58 µM | 0.852 µM and 2.09 µM | 9.16 µM and 14.1 µM | 1.42 µM and 3.59 µM | 18.3 µM and 23.3 µM | 1.12 µM and 1.2 µM | 3.69 µM and 3.95 µM | 0.14 µM and 0.223 µM | 4.2 µM and 6.26 µM | 39.9 µM and 36.5 µM | 1.29 µM and 1.11 µM | 8.23 µM and 10.8 µM | 2.1 µM and 2.39 µM
Nc1cc(N)c2nc(NCCc3ccc(Cl)c(Cl)c3)cnc2c1 | 2.15 µM | 4.88 µM | 15.4 µM | 35 µM | 2.5 µM | 8.22 µM | 13.8 µM | 30.2 µM | 13.8 µM | 27.1 µM | 17.1 µM | 32 µM | 12.6 µM | 33.7 µM | 14.1 µM | 21.4 µM | 47.6 µM | 17.7 µM | 34.2 µM | 27.8 µM
CC(=O)Nc1cc2c3c(cccc3c1)-c1ccccc1-2 | 0.25 µM | > 100 µM | 29.6 µM | > 100 µM | 5.72 µM | > 100 µM | 15.8 µM | 34.9 µM | > 100 µM | > 100 µM | 26.5 µM | 84.3 µM | > 100 µM | > 100 µM | 40 µM | 37.8 µM | > 100 µM | 3.72 µM | > 100 µM | > 100 µM
COc1ccc(/C=C\c2cc(OC)c(OC)c(OC)c2)c(NS(=O)(=O)c2ccc(F)cc2)c1O | 0.032 µM | 23.8 µM | 0.0419 µM | 26.1 µM | 0.0466 µM | > 100 µM | 0.0542 µM | > 100 µM | 0.102 µM | 0.515 µM | 0.211 µM | > 100 µM | 0.222 µM | 15 µM | 0.0452 µM | 0.142 µM |  | 0.164 µM | > 100 µM | > 80.1 µM
Cn1c(=O)c(Oc2ccc(F)cc2F)cc2cnc(NCC(C)(C)O)nc21 | > 25 µM | > 25 µM | > 25 µM | > 25 µM | > 25 µM | > 25 µM | > 25 µM | > 25 µM | > 25 µM | > 25 µM | > 25 µM | > 25 µM | > 25 µM | > 25 µM | > 25 µM | > 25 µM | > 25 µM | > 25 µM | > 25 µM | > 25 µM
[CH3][Hg]/[N]=C(/N)NC#N | 2.76 µM | > 100 µM | 25 µM | 88.7 µM | 3.73 µM | > 100 µM | 1.4 µM | 5.13 µM | 8.9 µM | 21.1 µM | 16.9 µM | 30.8 µM | 1.29 µM | 2.57 µM | 11.4 µM | 15.6 µM | 32.5 µM | 17.3 µM | 38.4 µM | 23.9 µM
